pKi: −log10 of the molar value. Like-named read-outs stand apart in the source and are kept apart here.
Target: recombinant Mcl-1 (residues 172-327) (Homo sapiens (Human), UniProt Q07820)
Test: Fluorescence polarization anisotropy competition assay (FITC-Bak or FITC-Bim BH3 peptide) with Mcl-1
Format: binding
Conditions: for Ki: Table 2, FITC-Bak or FITC-Bim peptide competition, Ki converted from IC50, read-out: Ki for Inhibition of Mcl-1

Chain of recombinant Mcl-1 (residues 172-327) (Q07820 172-327): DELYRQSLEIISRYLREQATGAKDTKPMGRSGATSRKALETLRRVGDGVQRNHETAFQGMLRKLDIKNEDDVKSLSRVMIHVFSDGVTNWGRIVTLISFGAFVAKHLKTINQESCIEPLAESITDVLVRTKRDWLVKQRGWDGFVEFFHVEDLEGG

SMILES	Ki (Ki bins given in nM) [nM]	other results
Cc1cc(OCCCc2c3n(c4c(-c5c(C)nn(C)c5C)c(Cl)ccc24)CCCN(c2cc(C(=O)O)cc4c2c(C=O)cn4C)C3=O)cc(C)c1Cl [I-254, 4-(8-chloro-11-(3-(4-chloro-3,5-dimethylphenoxy)propyl)-1-oxo-7-(1,3,5-trimethyl-1H-pyrazol-4-yl)-4,5-dihydro-1H-[1,4]diazepino[1,2-a]indol-2(3H)-yl)-3-formyl-1-methyl-1H-indole-6-carboxylic acid]	< 50	–
Cc1cc(OCCCc2c3n(c4c(-c5c(C)nn(C)c5C)c(Cl)ccc24)CCCN(Cc2cc(C(=O)O)cc(-c4ccc(OCc5ccccc5C(F)(F)F)cc4)c2)C3=O)cc(C)c1Cl [I-308, 5-((8-chloro-1-(3-(4-chloro-3,5-dimethylphenoxy)propyl)-1-oxo-7-(1,3,5-trimethyl-1H-pyrazol-4-yl)-4,5-dihydro-1H-[1,4]diazepino[1,2-a]indol-2(3H)-yl)methyl)-4′-((2-(trifluoromethyl)benzyl)oxy)-[1,1′-biphenyl]-3-carboxylic acid]	51 to 100	–
Cc1cc(OCCCc2c3n(c4c(-c5c(C)nn(C)c5C)c(Cl)ccc24)CCCN(c2cc(C(=O)O)cc(-c4ccncc4)c2)C3=O)cc(C)c1Cl [I-231, 3-(8-chloro-11-(3-(4-chloro-3,5-dimethylphenoxy)propyl)-1-oxo-7-(1,3,5-trimethyl-1H-pyrazol-4-yl)-4,5-dihydro-1H-[1,4]diazepino[1,2-a]indol-2(3H)-yl)-5-(pyridin-4-yl)benzoic acid]	< 50	–
Cc1cc(OCCCc2c(C(=O)NC3CCN(C(=O)c4cccc(Oc5ccccc5)c4)CC3)[nH]c3ccccc23)cc(C)c1Cl [I-67, 3-(3-(4-chloro-3,5-dimethylphenoxy)propyl)-N-(1-(3-phenoxybenzoyl)piperidin-4-yl)-1H-indole-2-carboxamide]	501 to 999	–
Cc1cc(OCCCc2c(C(=O)Nc3cccc(C(=O)O)c3)[nH]c3c(-c4c(C)nn(C)c4C)cccc23)cc(C)c1Cl [I-196, 3-(3-(3-(4-chloro-3,5-dimethylphenoxy)propyl)-7-(1,3,5-trimethyl-1H-pyrazol-4-yl)-1H-indole-2-carboxamido)benzoic acid]	< 50	–
Cc1cc(OCCCc2c3n(c4c(-c5c(C)nn(C)c5C)cccc24)CCN(Cc2cccc(-c4nnn[nH]4)c2)C3=O)cc(C)c1Cl [I-85, 2-(3-(1H-tetrazol-5-yl)benzyl)-10-(3-(4-chloro-3,5-dimethylphenoxy)propyl)-6-(1,3,5-trimethyl-1H-pyrazol-4-yl)-3,4-dihydropyrazino[1,2-a]indol-1(2H)-one]	< 50	–
Cc1cc(OCCCc2c(C(=O)N3CC(NC(=O)C(=O)O)C3)[nH]c3c(-c4c(C)nn(C)c4C)c(Cl)ccc23)cc(C)c1Cl [I-323, 2-((1-(6-chloro-3-(3-(4-chloro-3,5-dimethylphenoxy)propyl)-7-(1,3,5-trimethyl-1H-pyrazol-4-yl)-1H-indole-2-carbonyl)azetidin-3-yl)amino)-2-oxoacetic acid]	< 50	–
Cc1cc(OCCCc2c(C(=O)N(C)Cc3ccc(C(=O)O)cc3)n(CCN3CCOCC3)c3c(-c4c(C)nn(C)c4C)c(Cl)ccc23)cc(C)c1Cl [I-374, 4-((6-chloro-3-(3-(4-chloro-3,5-dimethylphenoxy)propyl)-N-methyl-1-(2-morpholinoethyl)-7-(1,3,5-trimethyl-1H-pyrazol-4-yl)-1H-indole-2-carboxamido)methyl)benzoic acid]	< 50	–
Cc1cc(OCCCc2c3n(c4c(-c5c(C)nn(C)c5C)c(Cl)ccc24)CCCN(c2ccc4ccn(C)c4c2)C3=O)cc(C)c1Cl [I-248, 8-chloro-1-(3-(4-chloro-3,5-dimethylphenoxy)propyl)-2-(1-methyl-1H-indol-6-yl)-7-(1,3,5-trimethyl-1H-pyrazol-4-yl)-2,3,4,5-tetrahydro-1H-[1,4]diazepino[1,2-a]indol-1-one]	< 50	–
Cc1cc(OCCCc2c(C(=O)NCc3ccc(C(=O)NS(C)(=O)=O)o3)[nH]c3ccccc23)cc(C)c1Cl [I-59, 3-(3-(4-chloro-3,5-dimethylphenoxy)propyl)-N-((5-((methylsulfonyl)carbamoyl)furan-2-yl)methyl)-1H-indole-2-carboxamide]	101 to 299	–
Cc1cc(OCCCc2c3n(c4c(-c5c(C)nn(C)c5C)c(Cl)ccc24)[C@H](C)CN(Cc2ccc(C(=O)O)o2)C3=O)cc(C)c1Cl [I-152, (R)-5-((7-chloro-10-(3-(4-chloro-3,5-dimethylphenoxy)propyl)-4-methyl-1-oxo-6-(1,3,5-trimethyl-1H-pyrazol-4-yl)-3,4-dihydropyrazino[1,2-a]indol-2(1H)-yl)methyl)furan-2-carboxylic acid]	< 50	–
Cc1cc(OCCCc2c(C(=O)NCCC(=O)NS(=O)(=O)c3ccc4ccccc4c3)[nH]c3ccccc23)cc(C)c1Cl [I-16, 3-(3-(4-chloro-3,5-dimethylphenoxy)propyl)-N-(3-(naphthalene-2-sulfonamido)-3-oxopropyl)-1H-indole-2-carboxamide]	101 to 299	–
Cc1cc(OCCCc2c(C(=O)Nc3cc(C(=O)O)cc(N(C)CCN(C)C)c3)[nH]c3c(-c4c(C)nn(C)c4C)c(Cl)ccc23)cc(C)c1Cl [I-210, 3-(6-chloro-3-(3-(4-chloro-3,5-dimethylphenoxy)propyl)-7-(1,3,5-trimethyl-1H-pyrazol-4-yl)-1H-indole-2-carboxamido)-5-((2-(dimethylamino)ethyl)(methyl)amino)benzoic acid]	< 50	–
Cc1cc(OCCCc2c3n(c4c(-c5c(C)nn(C)c5C)c(Cl)ccc24)CCN(Cc2ccc(C(=O)O)cn2)C3=O)cc(C)c1Cl [I-142, 6-((7-chloro-10-(3-(4-chloro-3,5-dimethylphenoxy)propyl)-1-oxo-6-(1,3,5-trimethyl-1H-pyrazol-4-yl)-3,4-dihydropyrazino[1,2-a]indol-2(1H)-yl)methyl)nicotinic acid]	< 50	–
Cc1cc(OCCCc2c3n(c4c(-c5c(C)nn(C)c5C)c(Cl)ccc24)CCCN(Cc2cc(OCCC(C)C)cc(C(=O)O)c2)C3=O)cc(C)c1Cl [I-300, 3-((8-chloro-11-(3-(4-chloro-3,5-dimethylphenoxy)propyl)-1-oxo-7-(1,3,5-trimethyl-1H-pyrazol-4-yl)-4,5-dihydro-1H-[1,4]diazepino[1,2-a]indol-2(3H)-yl)methyl)-5-(isopentyloxy)benzoic acid]	< 50	–
Cc1cc(OCCCc2c(C(=O)Nc3cccc(C#N)c3)[nH]c3c(-c4c(C)nn(C)c4C)c(Cl)ccc23)cc(C)c1Cl [I-352, 6-chloro-3-(3-(4-chloro-3,5-dimethylphenoxy)propyl)-N-(3-cyanophenyl)-7-(1,3,5-trimethyl-1H-pyrazol-4-yl)-1H-indole-2-carboxamide]	51 to 100	–
Cc1cc(OCCCc2c3n(c4c(-c5c(C)nn(C)c5C)c(Cl)ccc24)C[C@H](C)N(Cc2ccc(C(=O)O)cn2)C3=O)cc(C)c1Cl [I-137, (S)-6-((7-chloro-10-(3-(4-chloro-3,5-dimethylphenoxy)propyl)-3-methyl-1-oxo-6-(1,3,5-trimethyl-1H-pyrazol-4-yl)-3,4-dihydropyrazino[1,2-a]indol-2(1H)-yl)methyl)nicotinic acid]	< 50	–
Cc1cc(OCCCc2c(C(=O)Nc3ccc(C(=O)O)c(N4CCN(C)CC4)c3)[nH]c3c(-c4c(C)nn(C)c4C)c(Cl)ccc23)cc(C)c1Cl [I-90, 4-(6-chloro-3-(3-(4-chloro-3,5-dimethylphenoxy)propyl)-7-(1,3,5-trimethyl-1H-pyrazol-4-yl)-1H-indole-2-carboxamido)-2-(4-methylpiperazin-1-yl)benzoic acid]	< 50	–
Cc1cc(OCCCc2c(C(=O)NCCC(=O)NS(=O)(=O)c3cccc([N+](=O)[O-])c3)[nH]c3ccccc23)cc(C)c1Cl [I-21, 3-(3-(4-chloro-3,5-dimethylphenoxy)propyl)-N-(3-((3-nitrophenyl)sulfonamido)-3-oxopropyl)-1H-indole-2-carboxamide]	101 to 299	–
Cc1cc(OCCCc2c3n(c4c(-c5c(C)nn(C)c5C)cc(Cl)cc24)CCCN(c2cc(C(=O)O)cc4c2ccn4C)C3=O)cc(C)c1Cl [I-245, 4-(9-chloro-11-(3-(4-chloro-3,5-dimethylphenoxy)propyl)-1-oxo-7-(1,3,5-trimethyl-1H-pyrazol-4-yl)-4,5-dihydro-1H-[1,4]diazepino[1,2-a]indol-2(3H)-yl)-1-methyl-1H-indole-6-carboxylic acid]	–	pKi: 6.52 to 7.00
CCOC(=O)c1ccc(CNC(=O)c2[nH]c3ccccc3c2CCCOc2cc(C)c(Cl)c(C)c2)o1 [I-56, ethyl 5-((3-(3-(4-chloro-3,5-dimethylphenoxy)propyl)-1H-indole-2-carboxamido)methyl)furan-2-carboxylate]	–	Ki (Ki bins given in μM): 1000 to 9990 nM
Cc1cc(OCCCc2c(C(=O)Nc3ccc(C(=O)O)c(N4CCOCC4)c3)[nH]c3c(-c4c(C)nn(C)c4C)c(Cl)ccc23)cc(C)c1Cl [I-91, 4-(6-chloro-3-(3-(4-chloro-3,5-dimethylphenoxy)propyl)-7-(1,3,5-trimethyl-1H-pyrazol-4-yl)-1H-indole-2-carboxamido)-2-morpholinobenzoic acid]	< 50	–
CC[C@H](C)[C@H](NC(=O)c1ccc(CNC(=O)c2[nH]c3c(-c4c(C)nn(C)c4C)cccc3c2CCCOc2cc(C)c(Cl)c(C)c2)o1)C(=O)O [I-270, (5-((3-(3-(4-chloro-3,5-dimethylphenoxy)propyl)-7-(1,3,5-trimethyl-1H-pyrazol-4-yl)-1H-indole-2-carboxamido)methyl)furan-2-carbonyl)-L-isoleucine]	< 50	–
Cc1cc(OCCCc2c3n(c4c(-c5c(C)nn(C)c5C)c(Cl)ccc24)CCCN(c2cc(C(=O)O)cc(-c4cccn4C)c2)C3=O)cc(C)c1Cl [I-235, 3-(8-chloro-11-(3-(4-chloro-3,5-dimethylphenoxy)propyl)-1-oxo-7-(1,3,5-trimethyl-1H-pyrazol-4-yl)-4,5-dihydro-1H-[1,4]diazepino[1,2-a]indol-2(3H)-yl)-5-(1-methyl-1H-pyrrol-2-yl)benzoic acid]	< 50	–

Source: patent US10533010B2, “Substituted indole Mcl-1 inhibitors” (Vanderbilt University, priority 2014, dated 2020)
